# Assay results: PMC11213733, “Computational approaches identify a transcriptomic fingerprint of drug-induced structural cardiotoxicity” (Cell Biology and Toxicology, 2024)
# System: cardiac microtissues
# Assay: Ingenuity Pathway Analysis over-representation of differentially expressed genes (activation Z-score)
# Type: cell-based, human
# Conditions: 48hr high; Group 2
smiles,measurement,value
CCN(CC)CCNC(=O)c1c(C)[nH]c(/C=C2\C(=O)Nc3ccc(F)cc32)c1C [Sunitinib Malate],activation Z-score: Acute Phase Response Signaling,-2.84
same,activation Z-score: Adrenomedullin signaling pathway,-2.53
same,activation Z-score: Apelin Cardiac Fibroblast Signaling Pathway,2.236
same,activation Z-score: Apelin Liver Signaling Pathway,-2.449
same,activation Z-score: Aryl Hydrocarbon Receptor Signaling,-0.632
same,activation Z-score: Breast Cancer Regulation by Stathmin1,-3
same,activation Z-score: CD40 Signaling,-2
same,activation Z-score: CLEAR Signaling Pathway,-0.5
same,activation Z-score: Cardiac Hypertrophy Signaling (Enhanced),-3.53
same,activation Z-score: Cell Cycle: G2/M DNA Damage Checkpoint Regulation,-3
same,activation Z-score: Colorectal Cancer Metastasis Signaling,-3.578
same,activation Z-score: Cyclins and Cell Cycle Regulation,2.333
same,activation Z-score: ERK5 Signaling,-2
same,activation Z-score: Endothelin-1 Signaling,-2.496
same,activation Z-score: G-Protein Coupled Receptor Signaling,-3.212
same,activation Z-score: GP6 Signaling Pathway,-4.123
same,activation Z-score: Glioblastoma Multiforme Signaling,-2.333
same,activation Z-score: HGF Signaling,-2.333
same,activation Z-score: HIF1Î± Signaling,-3.464
same,activation Z-score: HMGB1 Signaling,-3.357
same,activation Z-score: Hepatic Fibrosis Signaling Pathway,-4.768
same,activation Z-score: IL-6 Signaling,-2.309
same,activation Z-score: IL-8 Signaling,-3.051
same,activation Z-score: IL-13 Signaling Pathway,-2.496
same,activation Z-score: IL-15 Production,-2.449
same,activation Z-score: ILK Signaling,-3.357
same,activation Z-score: Immunogenic Cell Death Signaling Pathway,-2.646
same,activation Z-score: Inhibition of Angiogenesis by TSP1,-2
same,activation Z-score: Integrin Signaling,-3.606
same,activation Z-score: Intrinsic Prothrombin Activation Pathway,-2
same,activation Z-score: Kinetochore Metaphase Signaling Pathway,3.266
same,activation Z-score: LXR/RXR Activation,0.905
same,activation Z-score: Leukocyte Extravasation Signaling,-2.065
same,activation Z-score: MIF Regulation of Innate Immunity,-2
same,activation Z-score: MYC Mediated Apoptosis Signaling,-1.633
same,activation Z-score: Macrophage Alternative Activation Signaling Pathway,-2.558
same,activation Z-score: Oncostatin M Signaling,-2.236
same,activation Z-score: Osteoarthritis Pathway,-2.711
same,activation Z-score: Oxytocin Signaling Pathway,-2.324
same,activation Z-score: PAK Signaling,-2.236
same,activation Z-score: PPAR Signaling,2.646
same,activation Z-score: Pancreatic Adenocarcinoma Signaling,-2.121
same,activation Z-score: Paxillin Signaling,-2
same,activation Z-score: Production of Nitric Oxide and Reactive Oxygen Species in Macrophages,-3.051
same,activation Z-score: Prostanoid Biosynthesis,-2
same,activation Z-score: Pulmonary Fibrosis Idiopathic Signaling Pathway,-5.692
same,activation Z-score: Pulmonary Healing Signaling Pathway,-2.449
same,activation Z-score: Pyridoxal 5'-phosphate Salvage Pathway,1.342
same,activation Z-score: RAC Signaling,-1.89
same,activation Z-score: RHOGDI Signaling,3.606
same,activation Z-score: Regulation Of The Epithelial Mesenchymal Transition By Growth Factors Pathway,-4.243
same,activation Z-score: Regulation of Cellular Mechanics by Calpain Protease,-2.236
same,activation Z-score: Regulation of eIF4 and p70S6K Signaling,-1.342
same,activation Z-score: Renin-Angiotensin Signaling,-2.449
same,activation Z-score: Ribonucleotide Reductase Signaling Pathway,-1.291
same,activation Z-score: Role of JAK family kinases in IL-6-type Cytokine Signaling,-2.668
same,activation Z-score: Role of NFAT in Cardiac Hypertrophy,-3.162
same,activation Z-score: STAT3 Pathway,-1.414
same,activation Z-score: Salvage Pathways of Pyrimidine Ribonucleotides,1.134
same,activation Z-score: Senescence Pathway,-3.3
same,activation Z-score: Signaling by Rho Family GTPases,-3.638
same,activation Z-score: TREM1 Signaling,-2.646
same,activation Z-score: Type II Diabetes Mellitus Signaling,-1.342
same,activation Z-score: White Adipose Tissue Browning Pathway,-2.714
same,activation Z-score: Wound Healing Signaling Pathway,-4.964
same,activation Z-score: iNOS Signaling,-2.236
